Source: patent EP0365763A1, “Antiproliferative cyclic compounds” (priority 1988, dated 1990)
Like-named read-outs stand apart in the source and are kept apart here.

How the values were obtained:
[1] = biological target: E.coli thymidylate synthase (TS) (Escherichia coli, UniProt P0A884); assay: Thymidylate synthase inhibition constants against 5,10-methylene-tetrahydrofolate; assay type: biochemical
Method: (§1) Determination of Inhibition Constants Against 5,10-Methylene-Tetrahydrofolate
(§2) Thymidylate synthase inhibition constants K₁ have been determined by the following method. All assays were run at 25°C and initiated by the addition of thymidylate synthase ("TS"). […] All reaction mixtures contained 50 mM Tris at pH 7.8 (the final pH of the reaction was 7.6), 10 mM DTT (dithiothreitol), 1 mM EDTA (ethylenediaminetetraacetic acid), 25 mM MgCl₂, 15 mM H₂CO (formaldehyde) and 25 microM dUMP. When human or Leishmania TS was assayed, 100 micrograms/ml of BSA (bovine serum albumin) was present in the reactions. […] Charcoal was used to remove unreacted dUMP from the tritium release reaction mixtures and the resultant water was counted to determine the extent of reaction.

[2] = biological target: Human thymidylate synthase (TS) (Homo sapiens, UniProt P04818); assay: as above; assay type: biochemical
Method: as §1
Thymidylate synthase inhibition constants K₁ have been determined by the following method. All assays were run at 25°C and initiated by the addition of thymidylate synthase ("TS"). […] All reaction mixtures contained 50 mM Tris at pH 7.8 (the final pH of the reaction was 7.6), 10 mM DTT (dithiothreitol), 1 mM EDTA (ethylenediaminetetraacetic acid), 25 mM MgCl₂, 15 mM H₂CO (formaldehyde) and 25 microM dUMP. When human or Leishmania TS was assayed, 100 micrograms/ml of BSA (bovine serum albumin) was present in the reactions.

[3] = biological target: L. major thymidylate synthase (TS) (Leishmania major, UniProt P07382); assay: biochemical
Method: as §1, §2

[4] = test system: CCRF-CEM, a human lymphoblastic leukemia line of T-cell origin (ATCC CCL 119); assay: Cellular growth in culture, MTT-tetrazolium reduction assay; assay type: cell-based; details: for IC50: Homo sapiens, CCRF-CEM, 120 h, read-out: IC50 FOR CELLS IN CULTURE CCRF-CEM; for inhibition at this concentration, CCRF-CEM: at the highest concentration tested, 5 days
Method: (§3) Cellular growth in the presence of the compounds in question was assessed using two cell lines, the Ll2l0 murine leukemia (ATCC CCL 219) and CCRF-CEM, a human lymphoblastic leukemia line of T-cell origin (ATCC CCL 119). Both lines were maintained in RPMI 1640 medium containing 5% heat-inactivated fetal bovine serum without antibiotics.
(§4) IC₅₀ values were determined in 150 microliter microcultures each containing 1500 (Ll2l0) or 4000 (CCRF-CEM) cells established in 96 well plates in growth medium supplemented with 50 IU/ml penicillin and 50 mcg/ml streptomycin. Growth was measured over 3 days (Ll2l0) or 5 days (CCRF-CEM) of continuous exposure to varying concentrations of each test compound added 4 h. after initial cell plating by the MTT-tetrazolium reduction assay of Mosmann (T. J. Immunol. Meth. 65, 55-63 (1983)) modified according to Alley et al. (Cancer Res. 48 589-601 (1988)). Water insoluble derivatives were dissolved in DMSO and diluted to a final concentration of 0.5% solvent in cell cultures.

[5] = test system: L1210 murine leukemia (ATCC CCL 219); assay: as above; assay type: cell-based; details: for IC50: Mus musculus, L1210, 72 h, read-out: IC50 FOR CELLS IN CULTURE L1210
Method: as §3, §4

murine L1210 TS = biological target: T1, murine L1210 TS (Mus musculus, UniProt P07607); details: relative to 10-propargyl-5,8-dideazafolic acid; cited from earlier work
T1 construct: host or cells: L1210

[6] = biological target: C.albicans thymidylate synthase (TS) (Candida albicans, UniProt P12461); assay: Thymidylate synthase inhibition constants against 5,10-methylene-tetrahydrofolate; assay type: biochemical
Method: as §1, §2

[7] = 5 days of continuous exposure, MTT
[8] = 3 days of continuous exposure, MTT
[9] = 25°C, pH 7.6, 25 microM dUMP, THF 5 to 150 microM, 100 micrograms/ml BSA, read-out: K1TS Human
[10] = 25°C, pH 7.6, 25 microM dUMP, THF 5 to 150 microM, read-out: K1TS C.albicans

C.albicans thymidylate synthase (TS), sequence (P12461 whole entry): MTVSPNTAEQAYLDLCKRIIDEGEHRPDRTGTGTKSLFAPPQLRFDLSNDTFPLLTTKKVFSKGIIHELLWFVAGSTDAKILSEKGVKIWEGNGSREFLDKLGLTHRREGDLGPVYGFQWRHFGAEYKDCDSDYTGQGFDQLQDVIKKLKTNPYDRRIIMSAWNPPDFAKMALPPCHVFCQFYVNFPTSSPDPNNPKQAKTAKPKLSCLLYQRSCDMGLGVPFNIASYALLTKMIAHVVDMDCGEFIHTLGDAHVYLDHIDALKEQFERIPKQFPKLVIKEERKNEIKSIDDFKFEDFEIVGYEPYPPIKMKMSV
Human thymidylate synthase (TS), sequence (P04818 whole entry): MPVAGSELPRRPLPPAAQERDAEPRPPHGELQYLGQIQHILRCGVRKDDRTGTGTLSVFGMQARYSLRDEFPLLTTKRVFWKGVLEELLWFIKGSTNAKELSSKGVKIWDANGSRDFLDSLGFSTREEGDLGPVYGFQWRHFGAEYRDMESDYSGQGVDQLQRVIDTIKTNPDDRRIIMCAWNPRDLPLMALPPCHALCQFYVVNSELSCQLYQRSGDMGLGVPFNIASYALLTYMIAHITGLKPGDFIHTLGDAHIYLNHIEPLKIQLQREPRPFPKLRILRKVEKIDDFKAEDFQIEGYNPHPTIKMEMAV
E.coli thymidylate synthase (TS), sequence (P0A884 whole entry): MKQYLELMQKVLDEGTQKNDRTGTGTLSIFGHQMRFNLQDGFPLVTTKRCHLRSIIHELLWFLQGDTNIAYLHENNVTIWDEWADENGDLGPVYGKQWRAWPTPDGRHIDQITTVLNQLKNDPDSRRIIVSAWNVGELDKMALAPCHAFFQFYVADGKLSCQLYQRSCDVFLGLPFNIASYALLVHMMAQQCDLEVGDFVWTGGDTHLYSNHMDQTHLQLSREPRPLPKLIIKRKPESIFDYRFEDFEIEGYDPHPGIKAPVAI
L. major thymidylate synthase (TS), sequence (P07382 whole entry): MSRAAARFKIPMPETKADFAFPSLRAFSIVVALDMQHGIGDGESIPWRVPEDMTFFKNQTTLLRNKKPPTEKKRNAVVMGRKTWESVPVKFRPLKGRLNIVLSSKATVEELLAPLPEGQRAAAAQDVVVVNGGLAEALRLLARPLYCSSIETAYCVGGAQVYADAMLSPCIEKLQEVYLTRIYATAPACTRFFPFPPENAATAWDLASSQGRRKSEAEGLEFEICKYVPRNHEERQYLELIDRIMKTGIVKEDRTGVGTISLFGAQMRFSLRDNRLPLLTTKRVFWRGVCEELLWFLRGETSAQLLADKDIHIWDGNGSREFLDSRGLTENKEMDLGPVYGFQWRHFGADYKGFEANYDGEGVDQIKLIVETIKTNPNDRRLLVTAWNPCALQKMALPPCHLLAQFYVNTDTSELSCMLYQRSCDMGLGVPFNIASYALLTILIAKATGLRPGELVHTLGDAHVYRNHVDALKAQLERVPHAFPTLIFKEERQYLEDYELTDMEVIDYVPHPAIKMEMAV
T1 sequence (P07607 whole entry): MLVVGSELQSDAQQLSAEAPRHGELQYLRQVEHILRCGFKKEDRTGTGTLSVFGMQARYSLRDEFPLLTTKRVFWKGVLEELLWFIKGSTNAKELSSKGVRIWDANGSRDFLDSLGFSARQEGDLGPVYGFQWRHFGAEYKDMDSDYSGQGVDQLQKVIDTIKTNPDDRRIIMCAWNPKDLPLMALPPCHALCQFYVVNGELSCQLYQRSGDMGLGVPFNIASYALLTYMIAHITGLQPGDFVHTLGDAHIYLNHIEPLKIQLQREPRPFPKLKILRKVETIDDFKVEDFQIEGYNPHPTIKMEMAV

## C#CCN(Cc1ccc2nc(C)[nH]c(=O)c2c1)c1ccc(C#N)c(C(F)(F)F)c1 [3-CF3,4-CN]
[1]
  Ki: 0.036 ± 0.007 µM
[2]
  Ki: 0.081 ± 0.057 µM
[3]
  Ki: 0.03 µM
[4]; [7]
  IC50: > 2.8 µM
[4]
  inhibition at this concentration, CCRF-CEM: no inhibition
[5]; [8]
  IC50: > 2.8 µM
[5]; at the highest concentration tested, printed in the same cell or footnote, 3 days
  inhibition at this concentration, L1210: 15%

## C#CCN(Cc1ccc2nc(C)[nH]c(=O)c2c1)c1ccc(S(=O)(=O)c2ccccc2)cc1 [Compound 4-SO2Ph]
[4]
  IC50: 2.5 µM
[5]
  IC50: 1 µM

## tetraglutamate of 10-propargyl-5,8-dideazafolic acid
Murine L1210 TS
  binds more tightly to murine L1210 TS than the monoglutamate parent compound: 119 fold

## C#CCN(Cc1ccc2nc(C)nc(O)c2c1)c1cccc(CC)c1 [Compound 3-C2H5]
[1]
  Ki: 24.5 ± 15.7 µM
[2]; [9]
  Ki: 23.9 ± 20.8 µM
[4]; [7]
  IC50: > 5 µM
[5]; [8]
  IC50: > 5 µM

## C#CCN(Cc1ccc2nc(C)nc(O)c2c1)c1cccc(CO)c1 [Compound 3-CH2OH]
[1]
  Ki: 6.7 ± 5.4 µM
[2]; [9]
  Ki: 1.2 ± 0.4 µM
[4]; [7]
  IC50: > 55 µM
[5]; [8]
  IC50: 48 µM

## C#CCN(Cc1ccc2nc(C)nc(O)c2c1)c1ccc(S(=O)(=O)NCC(=O)O)c(C(F)(F)F)c1 [3-CF3,4-SO2NHCH2COOH]
[1]
  Ki: 0.015 ± 0.003 µM
[3]; 25°C, pH 7.6, 25 microM dUMP, THF 5 to 150 microM, 100 micrograms/ml BSA, read-out: K1TS L. major
  Ki: 0.013 µM

## C#CCN(Cc1ccc2nc(C)nc(O)c2c1)c1ccc(C#N)cc1 [Compound 4-CN]
[1]
  Ki: 0.52 ± 0.46 µM
[2]; [9]
  Ki: 0.54 ± 0.74 µM
[4]; [7]
  IC50: > 5 µM
[5]; [8]
  IC50: > 5 µM

## C#CCN(Cc1ccc2nc(C)nc(S)c2c1)c1cccc(C(F)(F)F)c1 [Compound D, N-((3,4-dihydro-2-methyl-4-thio-6-quinazolinyl)methyl)-N-(prop-2-ynyl)-3-trifluoromethylaniline]
[1]
  Ki: 3.3 ± 1.4 µM
[2]; [9]
  Ki: 17.5 ± 11 µM

## C#CCN(Cc1ccc2nc(C)[nH]c(=O)c2c1)c1ccccc1 [—]
[4]; [7]
  IC50: > 10 µM
[5]; [8]
  IC50: > 10 µM

## C#CCN(Cc1ccc2nc(C)nc(O)c2c1)c1cccc(C(C)O)c1 (stereo not shown) [3-CH(OH)CH3]
[1]
  Ki: 11.4 ± 9.8 µM
[2]; [9]
  Ki: 9.6 ± 6.9 µM
[4]; [7]
  IC50: > 50 µM
[5]; [8]
  IC50: > 50 µM

## C#CCN(Cc1ccc2nc(C)nc(O)c2c1)c1cccc(C#C)c1 [3-C≡CH]
[1]
  Ki: 32.9 ± 14.1 µM
[4]; [7]
  IC50: > 2.4 µM
[5]; [8]
  IC50: > 2.4 µM

## C#CCN(Cc1ccc2nc(C)nc(O)c2c1)c1cccc(Br)c1 [Compound 3-Br]
[1]
  Ki: 5.5 ± 1.3 µM
[2]; [9]
  Ki: 3.6 ± 2.6 µM
[4]; [7]
  IC50: > 5.5 µM
[5]; [8]
  IC50: > 5.5 µM

## C#CCN(Cc1ccc2nc(C)nc(O)c2c1)c1cccc(C)c1 [Compound 3-CH3]
[1]
  Ki: 16.3 ± 9.8 µM
[6]; [10]
  Ki: 7.7 µM
[2]; [9]
  Ki: 10.2 ± 10.2 µM
[4]; [7]
  IC50: > 5 µM
[5]; [8]
  IC50: > 5 µM

## C#CCN(Cc1ccc2nc(C)[nH]c(=O)c2c1)c1cccc(C(F)(F)F)c1 [Compound 3-CF3]
[4]; [7]
  IC50: > 4.3 µM
[5]; [8]
  IC50: > 4.3 µM

## C#CCN(Cc1ccc2nc(C)[nH]c(=O)c2c1)c1ccc(S(N)(=O)=O)cc1 [Compound 4-SO2NH2]
[1]
  Ki: 0.25 ± 0.15 µM
[6]; [10]
  Ki: 1 µM
[2]; [9]
  Ki: 0.16 ± 0.12 µM
[4]; [7]
  IC50: > 25 µM
[4]
  inhibition at this concentration, CCRF-CEM: no inhibition
[5]; [8]
  IC50: 20 µM

## C#CCN(Cc1ccc2nc(C)nc(O)c2c1)c1ccc(Cl)cc1 [Compound 4-Cl]
[1]
  Ki: 5.9 ± 1.8 µM
[6]; [10]
  Ki: 10.6 ± 4.7 µM
[2]; [9]
  Ki: 5.4 µM
[4]; [7]
  IC50: > 4 µM
[5]; [8]
  IC50: > 4 µM

## C#CCN(Cc1ccc2nc(C)nc(O)c2c1)c1ccc(S(N)(=O)=O)c(C(F)(F)F)c1 [3-CF3,4-SO2NH2]
[1]
  Ki: 0.19 ± 0.12 µM
[6]; [10]
  Ki: 1.9 ± 0.6 µM
[2]; [9]
  Ki: 0.58 ± 0.74 µM

## C#CCN(Cc1ccc2nc(C)nc(O)c2c1)c1ccc(C#N)c(Cl)c1 [3-Cl, 4-CN]
[1]
  Ki: 0.091 ± 0.052 µM
[6]
  Ki: 0.28 ± 0.19 µM
[2]
  Ki: 0.087 ± 0.001 µM
[4]; [7]
  IC50: > 6.8 µM
[5]; [8]
  IC50: 4.5 µM

## C#CCN(Cc1ccc2nc(C)nc(O)c2c1)c1ccc([N+](=O)[O-])c(C(F)(F)F)c1 [3-CF3,4-NO2]
[1]
  Ki: 0.078 ± 0.076 µM
[2]; [9]
  Ki: 0.2 ± 0.25 µM
[5]; [8]
  IC50: > 5 µM

## C#CCN(Cc1ccc2nc(C)[nH]c(=O)c2c1)c1ccc(S(=O)(=O)c2ccccc2)c(C(F)(F)F)c1 [Compound B, N-((3,4-Dihydro-2-methyl-4-oxo-6-quinazolinyl)methyl)-4-(phenylsulfonyl)-N-(prop-2-ynyl)-3-(trifluoromethyl)aniline]
[4]; [7]
  IC50: 6 µM
[5]; [8]
  IC50: 3 µM

## C#CCN(Cc1ccc2nc(C)nc(O)c2c1)c1cccc(I)c1 [Compound 3-I]
[1]
  Ki: 49 ± 42.3 µM
[6]; [10]
  Ki: 15.5 ± 5.5 µM
[2]; [9]
  Ki: 4.7 ± 3.7 µM
[4]; [7]
  IC50: > 5.3 µM
[5]; [8]
  IC50: > 5.3 µM

## C#CCN(Cc1ccc2nc(-c3ccccc3)[nH]c(=O)c2c1)c1ccc(Cl)cc1 [Compound C]
[1]
  Ki: 42.6 ± 23.1 µM

## C#CCN(Cc1ccc2nc(C)[nH]c(=O)c2c1)c1ccc(S(=O)(=O)C(F)(F)F)cc1 [Compound A, N-((3,4-Dihydro-2-methyl-4-oxo-6-quinazolinyl)methyl)-N-(prop-2-ynyl)-4-trifluoromethanesulfonylaniline]
[1]
  Ki: 0.015 µM
[2]; [9]
  Ki: 0.075 ± 0.035 µM
[4]; [7]
  IC50: > 2.75 µM
[4]
  inhibition at this concentration, CCRF-CEM: no inhibition
[5]; [8]
  IC50: > 2.75 µM

## C#CCN(Cc1ccc2nc(C)nc(O)c2c1)c1ccc([N+](=O)[O-])cc1 [Compound 4-NO2]
[1]
  Ki: 0.12 ± 0.07 µM
[6]; [10]
  Ki: 1.5 ± 1.1 µM
[2]; [9]
  Ki: 0.25 ± 0.21 µM
[4]; [7]
  IC50: > 4.8 µM
[5]; [8]
  IC50: 4.5 µM

## C#CCN(Cc1cccc2c(NC=O)coc12)c1ccc([N+](=O)[O-])cc1 [Compound E, N-((3-Formylamino-7-benzofuranyl)methyl)-N-(prop-2-ynyl)-4-nitroaniline]
[1]
  Ki: 70.9 ± 1.8 µM

## C#CCN(Cc1ccc2nc(C)nc(O)c2c1)c1ccc(C(=O)c2ccccc2)cc1 [Compound 4-COPh]
[1]
  Ki: 0.5 ± 0.11 µM
[2]; [9]
  Ki: 0.7 ± 0.19 µM
[4]; [7]
  IC50: > 8.5 µM
[5]; [8]
  IC50: 6.8 µM
